# Reference: patent US8575164B2, “Combination cancer therapy” (OSI Pharmaceuticals, LLC, priority 2005, dated 2013)
# Read-outs that look alike come from different tables or passages of the source.
# Legend:
# colorectal cancer = conditions: cited from earlier work
# [1] = test system: H292 human non-small cell lung carcinoma cell line; conditions: H292 cells in culture; single agent or combination
# Protocol: The basis of the assay is a luminescent quantitation of ATP present in a cell culture plate well. In essence, the greater the number of viable cells in the well, the greater the level of ATP present. […] Results were calculated as a fraction of the DMSO controlled cells.
# [2] = test system: H292 human non-small cell lung carcinoma cell line; conditions: H292 cells in culture; single agent or combination; remark: listed apart in the source
# Protocol: To monitor cell apoptosis, DNA fragmentation was measured by using a commercially available kit from Roche. Cells were plated in 90 ul of 10% serum-containing growth media at a density of 5000 cells/well in a 96-well culture plate. On day 2, cells were treated with 10 ul of 10× concentrations of drugs or DMSO alone for a final well volume of 100 ul. After 48 h treatment with the drugs, the cells were assayed for DNA fragmentation according to the manufacture instructions. Results were calculated as fold of induction of DNA fragmentation of the DMSO controlled cells.
compound,measurement,setting,value
O=c1[nH]cc(F)c(=O)[nH]1 [5-fluorouracil],response rates,colorectal cancer; single-agent treatment for advanced colorectal cancer,about 10%
"C#Cc1cccc(Nc2ncnc3cc(OCCOC)c(OCCOC)cc23)c1 [TARCEVA™, [6,7-bis(2-methoxyethoxy)-4-quinazolin-4-yl]-(3-ethynylphenyl)amine]",inhibition of cell proliferation,[1],inhibited cell proliferation
same,induction of apoptosis,[2],induced apoptosis
O=C1[O][Pt]2([NH][C@@H]3CCCC[C@H]3[NH]2)[O]C1=O [oxaliplatin],response rates,"colorectal cancer; combined with 5-FU and leucovorin, first-line treatment for colorectal cancer",25-40%
